Experimental data from patent EP1494749B1, “PROCESS FOR PREPARATION OF PHARMACEUTICAL COMPOSITION CONTAINING ANTIRETROVIRAL PROTEASE INHIBITOR WITH IMPROVED BIOAVAILABILITY” (Cadila Pharmaceuticals Limited, priority 2002, dated 2003).

How the values were obtained:
[1] = in vivo; cited from earlier work
clinical = details: human, in vivo
Description: 2. Kit In a further aspect, the present invention provides a kit comprising one or more pharmaceutically acceptable doses of an antiretroviral protease inhibitor as defined above and one or more pharmaceutically acceptable doses of piperine or an isomer thereof. […] However, the scope of this invention is not limited by them. […] Nelfinavir i) Two tablets each containing 250 mg of Nelfinavir and a tablet containing 20 mg of piperine. ii) Two tablets each containing 250 mg of Nelfinavir and two tablets each containing 15 mg of piperine. Saquinavir i) Three capsules each containing 200 mg of Saquinavir and three tablets each containing 5 mg of piperine. ii) Four capsules each containing 200 mg of Saquinavir and a tablets containing 20 mg of piperine. 3. The following are Examples of excipients (i.e. other than piperine) which can be used to prepare pharmaceutical compositions of the present invention. However, the scope of this invention is not limited by them. Saquinavir : • Capsule: medium chain mono- and diglycerides, povidone and dl-alpha tocopherol. […] 4. […] However, the scope of this invention is not limited by them. […] 5.

Tmax (clinical): 1.58 h
SMILES: CC(C)(C)NC(=O)[C@@H]1CN(Cc2cccnc2)CCN1C[C@@H](O)C[C@@H](Cc1ccccc1)C(=O)N[C@H]1c2ccccc2C[C@H]1O [Indinavir]
reduction in AUC [1]: 77% ± 8%
